Reference: patent publication US11918662B2, “Heterocyclic compounds and imaging agents for imaging huntingtin protein” (CHDI Foundation, Inc., priority 2020, dated 2024)

Biological target: T1, MBP-HTT(1-89)Q46-His(6×) (“Exon1-Q46”) protein aggregates (Homo sapiens, UniProt P42858, INS38QQQQQQQQQQQQQQQQQQQQQQQQQ)
T1 construct: MBP-HTT(1-89)Q46-His(6×); His(6×) (C); made in house
Test: Exon1-Q46 Radioligand Binding Assay
Settings: displacement of 0.3 nM [3H3-methyl]-5-((5-methoxypyridin-2-yl)methoxy)-2-(pyrazin-2-yl)benzo[d]oxazole from 1 μM aggregated Exon1-Q46, 60 minutes at 37° C.; read-out: Potency Range (IC50)
Experimental: Exon1-Q46 Radioligand Binding Assay
For experiments 30 μM MBP-Exon1-Q46 was incubated with 150 μg/mL thrombin in assay buffer (150 mM NaCl, 50 mM Tris pH 8.0) and 2 mM CaCl2 for 16 hours at 37° C. Aggregated Exon1-Q46 was pelleted by centrifugation for 5 minutes at 13,000 rpm in a bench top centrifuge and re-dissolved in the same volume of assay buffer. […] For the RBA, Q46 protein aggregates and test compounds were pre-incubated in assay buffer for 20 minutes at room temperature, in 100 μL/well in a 96-well plate (pp, round bottom). Then, ligand was added in 50 μL/well and incubated for 60 minutes at 37° C. Final assay concentrations were […] test compound, 1 μM Exon1-Q46 protein (equivalent monomer concentration) and 0.3 nM ligand [^3H3-methyl]-5-((5-methoxypyridin-2-yl)methoxy)-2-(pyrazin-2-yl)benzo[d]oxazole. Samples were transferred onto GF/B filter plates and washed 2× with 200 μL PBS using a Filtermate Harvester. After drying filter plates for 1 hour at 55° C., the back of the plates were sealed with foil and 30 μL/well scintillation fluid (Packard MicroScint 40) added, incubated for 15 minutes in the dark and counted in a MicroBeta reader. […] IC50 values were determined with a sigmoidal inhibition model with four variables (top, bottom, slope, IC50) in a global fit using the normalized replicate data.

T1 sequence (P42858 with tags, fused parts or gaps with the stated changes limits assumed): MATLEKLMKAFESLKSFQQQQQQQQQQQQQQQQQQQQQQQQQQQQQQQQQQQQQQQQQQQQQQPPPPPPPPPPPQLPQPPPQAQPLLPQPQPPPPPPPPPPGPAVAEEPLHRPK

IC50 | SMILES
< 100 nM | Cc1cccc(NC(=O)CCCn2c(=O)c3cccn3c3ccc(F)cc32)c1 [Example 1-11]
< 100 nM | COc1ccc(NC(=O)CCCn2c(=O)c3cccn3c3ccc(OC)cc32)cc1 [Example 5-7]
< 100 nM | O=C(CCn1c(=O)c2cccn2c2ccc(F)cc21)Nc1cccc(Cl)c1 [Example 3-25]
< 100 nM | Cc1nn(C)c2c1c(=O)n(CCC(=O)Nc1ccccc1F)c1cc(F)ccc21 [Example 9-27]
< 100 nM | Cn1ncc2c(=O)n(CCC(=O)Nc3ccc(F)cc3)c3cc(F)ccc3c21 [Example 9-29]
< 100 nM | O=C(CCn1c(=O)c2cccn2c2ccc(F)cc21)NC1CCCC1 [Example 3-37]
< 100 nM | O=C(CCn1c(=O)c2cccn2c2ccc(F)cc21)N1Cc2ccccc2C1 [Example 3-31]
< 100 nM | COc1ccc(NC(=O)[C@H]2CC[C@@H]2n2c(=O)c3cccn3c3ccccc32)nc1 (racemic) [Example 17-1, (1SR,2SR)—N-(5-Methoxypyridin-2-yl)-2-{4-oxo-4H,5H-pyrrolo[1,2-a]quinoxalin-5-yl}cyclobutane-1-carboxamide]
100 to 500 nM | CN(C)CCNC(=O)CCn1c(=O)c2cccn2c2ccc(F)cc21 [Example 3-39]
< 100 nM | COc1cc2c(cn1)CCN(C(=O)CCn1c(=O)c3cccn3c3ccc(F)cc31)C2 [Example 3-48]
< 100 nM | Cc1ccc(CNC(=O)CCn2c(=O)c3cc(F)cn3c3ccc(F)cc32)nc1 [Example 3-63]
< 100 nM | COc1ccnc(NC(=O)CCCn2c(=O)c3cccn3c3ccc(OC)cc32)c1 [Example 5-10]
< 100 nM | COc1ccc(NC(=O)CCCn2c(=O)c3cccn3c3cccnc32)nc1 [Example 4-9]
< 100 nM | Cc1ccc(NC(=O)CCn2c(=O)c3cccn3c3ccccc32)cn1 [Example 3-68]
< 100 nM | CC1CC(C)CN(C(=O)CCCn2c(=O)c3cccn3c3ccccc32)C1 (stereo not shown) [Example 29-2]
< 100 nM | Cn1ncc2c(=O)n(CCC(=O)N3Cc4cccnc4C3)c3cc(F)ccc3c21 [Example 9-4]
< 100 nM | O=C(CCn1c(=O)c2cccn2c2ccc(F)cc21)N1CCc2ncccc2C1 [Example 3-50]
< 100 nM | O=C(CCn1c(=O)c2cccn2c2ccc(F)cc21)N1CCc2ccccc2C1 [Example 3-44]
100 to 500 nM | O=C(CCCn1c(=O)c2cccn2c2ccc(F)cc21)NCc1cccnc1 [Example 1-7]
< 100 nM | Cn1c2c(ccc1=O)CN(C(=O)CCn1c(=O)c3cccn3c3ccc(F)cc31)CC2 [Example 3-49]
< 100 nM | COc1ccc(NC(=O)CCn2c(=O)c3cccn3c3ccc(F)cc32)cn1 [Example 3-12]
< 100 nM | COc1ccc(NC(=O)CCn2c(=O)c3c(Cl)ccn3c3ccc(F)cc32)nc1 [Example 3-61]
< 100 nM | O=C(CCn1c(=O)c2cccn2c2ccc(F)cc21)N1CCc2ncccc21 [Example 3-59]
< 100 nM | COc1ccc(NC(=O)CCn2c(=O)c3cccn3c3ccc(F)cc32)nc1 [Example 3-6]
< 100 nM | COc1cccc(NC(=O)CCCn2c(=O)c3cccn3c3ccccc32)c1 [Example 5-3]

IC50 | SMILES
< 100 nM | O=C(CCn1c(=O)c2cccn2c2ccc(F)cc21)NCC1CCCCC1 [Example 3-35]
< 100 nM | O=C(CCn1c(=O)c2cccn2c2ccc(F)cc21)Nc1ccc(Cl)cc1 [Example 3-26]
< 100 nM | COc1ccc(NC(=O)CCn2c(=O)c3ccnn3c3ccc(F)cc32)nc1 [Example 8-1, 3-{7-Fluoro-4-oxo-4H,5H-pyrazolo[1,5-a]quinoxalin-5-yl}-N-(5-methoxypyridin-2-yl)propanamide]
< 100 nM | COc1cccc(NC(=O)CCCn2c(=O)c3nccn3c3ccc(F)cc32)c1 [Example 5-11]
500 to 10000 nM | CN(C)CCNC(=O)CCCn1c(=O)c2cccn2c2ccc(F)cc21 [Example 1-30]
< 100 nM | Cn1ncc2c(=O)n(CCC(=O)Nc3ccccc3Cl)c3cc(F)ccc3c21 [Example 9-17]
< 100 nM | O=C(CCn1c(=O)c2cn[nH]c2c2ccc(F)cc21)Nc1ccc(F)cc1F [Example 19-1, N-(2,4-Difluorophenyl)-3-(7-fluoro-4-oxo-1H-pyrazolo[4,3-c]quinolin-5-yl)propanamide]
< 100 nM | Cc1ccc(NC(=O)CCn2c(=O)c3cccn3c3ccc(F)cc32)cc1 [Example 3-2]
< 100 nM | COc1ccc(NC(=O)CCn2c(=O)c3cc(C)cn3c3ccc(F)cc32)nc1 [Example 3-67]
< 100 nM | O=C(CCn1c(=O)c2cccn2c2ccc(F)cc21)NCc1ccccc1 [Example 3-28]
< 100 nM | O=C(CCn1c(=O)c2cccn2c2ccc(F)cc21)N1CCc2cccnc21 [Example 3-53]
< 100 nM | COc1ccnc(NC(=O)CCCn2c(=O)c3cccn3c3cccnc32)c1 [Example 4-8]
< 100 nM | O=C(CCCn1c(=O)c2cccn2c2ccc(F)cc21)Nc1ccncc1 [Example 1-16]
< 100 nM | Cn1ncc2c(=O)n(CCC(=O)Nc3ccncc3F)c3cc(F)ccc3c21 [Example 9-7]
< 100 nM | COc1ccnc(NC(=O)CCCn2c(=O)c3cccn3c3ccncc32)c1 [Example 2-4]
< 100 nM | O=C(CCn1c(=O)c2cccn2c2ccc(F)cc21)Nc1ccccc1 [Example 3-22]
< 100 nM | C[C@H]1C[C@H](C)CN(C(=O)CCCn2c(=O)c3cccn3c3ccc(F)cc32)C1 [Example 1-3]
< 100 nM | COc1ccc(NC(=O)CCCn2c(=O)c3cccn3c3cnccc32)nc1 [Example 6-4]
< 100 nM | COc1ccncc1NC(=O)CCn1c(=O)c2cnn(C)c2c2ccc(F)cc21 [Example 9-6]
< 100 nM | COc1ccc(NC(=O)CCCn2c(=O)c3cccn3c3cccnc32)cc1 [Example 4-7]
< 100 nM | COc1ncccc1NC(=O)CCn1c(=O)c2ccnn2c2ccc(F)cc21 [Example 8-3]
< 100 nM | Cn1ncc2c(=O)n(CCC(=O)Nc3ccc(F)cc3F)c3ccc(F)cc3c21 [Example 21-2]
< 100 nM | COc1ccc2c(c1)n(CCCC(=O)Nc1ccc(C)cc1)c(=O)c1cccn12 [Example 5-6]
100 to 500 nM | CCNC(=O)CCCn1c(=O)c2cccn2c2ccc(F)cc21 [Example 1-34]
< 100 nM | O=C(CCn1c(=O)c2cccn2c2ccc(F)cc21)N1CCCc2ccccc21 [Example 3-47]

IC50 | SMILES
< 100 nM | COc1ccc(NC(=O)CCCn2c(=O)c3cccn3c3ccc(F)cc32)nc1 [Example 1-43]
< 100 nM | COc1ccc(NC(=O)CCn2c(=O)c3cnn(C)c3c3ccc(F)cc32)nc1 [Example 9-23]
< 100 nM | COc1ccc(NC(=O)CCCn2c(=O)c3cccn3c3ncccc32)cc1 [Example 4-2]
< 100 nM | COc1ccc(NC(=O)CCn2c(=O)c3cc(F)cn3c3ccc(F)cc32)nc1 [Example 3-66]
< 100 nM | COc1ccc(OCCCn2c(=O)c3cccn3c3ccc(F)cc32)nc1 [Example 11-1, 7-Fluoro-5-{3-[(5-methoxypyridin-2-yl)oxy]propyl}-4H,5H-pyrrolo[1,2-a]quinoxalin-4-one]
< 100 nM | Cc1ccc(NC(=O)CCCn2c(=O)c3cccn3c3ccccc32)cc1 [Example 5-1]
< 100 nM | COc1cccc(NC(=O)CCCn2c(=O)c3cccn3c3ccc(OC)cc32)c1 [Example 5-8]
100 to 500 nM | O=C(CCCn1c(=O)c2cccn2c2ccccc21)NC1CCCCCC1 [Example 5-15]
< 100 nM | Cn1ncc2c(=O)n(CCC(=O)Nc3ccc(F)cc3F)c3cccc(F)c3c21 [Example 21-3]
< 100 nM | O=C(CCCn1c(=O)c2cccn2c2ccc(F)cc21)NCc1ccccc1 [Example 1-15]
< 100 nM | Cc1ccc(NC(=O)CCn2c(=O)c3cccn3c3ccc(F)cc32)nc1 [Example 3-24]
< 100 nM | O=C(CCCn1c(=O)c2cccn2c2ccc(F)cc21)NCC1CCCCC1 [Example 1-19]
< 100 nM | CC1CCC(NC(=O)CCn2c(=O)c3cccn3c3ccc(F)cc32)CC1 (stereo not shown) [Example 3-32]
< 100 nM | COc1ccc(NC(=O)CCn2c(=O)c3ccc(Cl)n3c3ccc(F)cc32)nc1 [Example 7-1]
< 100 nM | O=C(CCn1c(=O)c2cccn2c2ccc(F)cc21)Nc1ccccc1Cl [Example 3-15]
< 100 nM | O=C(CCn1c(=O)c2cccn2c2ccc(F)cc21)N1CCc2cccnc2C1 [Example 3-56]
< 100 nM | C[C@@H]1CN(C(=O)CCCn2c(=O)c3cccn3c3ccc(F)cc32)C[C@@H]1C [Example 1-47]
< 100 nM | COc1cccc(NC(=O)CCCn2c(=O)c3cccn3c3ccncc32)c1 [Example 2-3]
< 100 nM | O=C(CCn1c(=O)c2cccn2c2ccc(F)cc21)NC1CCCCC1 [Example 3-34]
< 100 nM | O=C(CCn1c(=O)c2cccn2c2ccc(F)cc21)N1Cc2ccncc2C1 [Example 3-54]
< 100 nM | Cc1ccc(NC(=O)CCCn2c(=O)c3cccn3c3cnccc32)cc1 [Example 6-1]
< 100 nM | O=C(CCn1c(=O)c2cccn2c2ccc(F)cc21)Nc1ccccn1 [Example 3-19]
< 100 nM | O=C(CCn1c(=O)c2ccnn2c2ccc(F)cc21)N1CCc2cnccc21 [Example 8-6]
